Assay results taken from patent US20230330089A1, “COVID PREVENTION AND TREATMENT USING AN INTEGRIN INHIBITOR” (priority 2022, published 2023).

How the values were obtained:
[1] = tested on: VsVg positive control lentivirus; format: cell-based; conditions: HSAE cells pre-treated with 20 nM to 1 μM for 2 hours; 24 hour infection
TGF-β signaling = conditions: breast cancer cells; cited from earlier work
[2] = Phase I, solid tumors; cited from earlier work
ACE2 = conditions: cited from earlier work
SARS-CoV-2 pseudovirus = conditions: cited from earlier work

SMILES | effect on VsVg positive control infection [1] | effect on TGF-β signaling (TGF-β signaling) | toxicity profile in patients [2] | cellular expression of ACE2 (ACE2) | pseudovirus infection of multiple human cell types (SARS-CoV-2 pseudovirus)
COc1ccc(S(=O)(=O)N[C@@H](CNc2nc(C)nc(N3CCC(c4ccc5c(n4)NCCC5)CC3)c2C)C(=O)O)cc1 [GLPG-0187] | no effect of the inhibitor was observed | decreased TGF-β signaling | favorable toxicity profile |  | 
CNS(=O)(=O)Nc1nccc(Cc2c(C)c3ccc(Oc4ncccn4)cc3oc2=O)c1F [VS-6766] |  |  |  | reduce cellular expression of ACE2 | inhibit pseudovirus infection
